Values quoted from earlier work as cited in patent JP2011132186A, “ホルモン不応性前立腺癌治療法及び治療効果予測方法” (University of Tokushima NUC, priority 2009, dated 2011).

System: hormone-refractory prostate cancer [ホルモン不応性前立腺癌]
Settings: large phase III comparative trial in Europe and USA

## CC(=O)O[C@@]12CO[C@@H]1C[C@H](O)[C@@]1(C)C(=O)[C@H](O)C3=C(C)[C@@H](OC(=O)[C@H](O)[C@@H](NC(=O)OC(C)(C)C)c4ccccc4)C[C@@](O)([C@@H](OC(=O)c4ccccc4)[C@H]21)C3(C)C [ドセタキセル]
  median survival time (OS): 18.9 months

## O=C1c2c(O)ccc(O)c2C(=O)c2c(NCCNCCO)ccc(NCCNCCO)c21 [ミトキサントロン]
  median survival time (OS): 16.5 months
